This is an account of results in patent publication US20230105212A1, “BIPHENYL DERIVATIVE INHIBITOR, PREPARATION METHOD THEREFOR AND USE THEREOF” (SHANGHAI HANSOH BIOMEDICAL CO., LTD., priority 2020, published 2023).

Structures are written as SMILES.

The assay deals with T1, human PD-1/PD-L1 binding (Homo sapiens, UniProt Q9NZQ7).
T1 construct: PD-L1-His protein (19 to 238 amino acids) (Abcam #ab167713); purchased Abcam (PD-L1-His); R&D (PD-1-Fc) ab167713; 1086-PD
T1 sequence (Q9NZQ7 19-238): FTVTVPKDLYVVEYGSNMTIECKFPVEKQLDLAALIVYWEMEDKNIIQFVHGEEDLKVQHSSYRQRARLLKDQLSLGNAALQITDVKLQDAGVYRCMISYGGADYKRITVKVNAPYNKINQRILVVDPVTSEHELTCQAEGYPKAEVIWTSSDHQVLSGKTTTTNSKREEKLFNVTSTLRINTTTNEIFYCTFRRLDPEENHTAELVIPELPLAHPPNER
Put plainly: Inhibition of human PD-1/PD-L1 binding (TR-FRET/HTRF). To be noted: TR-FRET, PD-L1-His and PD-1-Fc; read-out: PD-1/PD-L1 binding IC50. The text has this: Test Embodiment 1: Test of Inhibitory Effect of the Compounds of the Present Disclosure on Human PD-1/PD-L1 Binding
Experimental purpose: The purpose of this test embodiment was to measure the inhibitory activity of the compounds on human PD-1/PD-L1 binding.
Experimental reagents: Binding Domain diluent buffer was purchased from Cisbio Company, Cat. No.: 62DLBDDF; MAb Anti-6HIS Eu cryptate Gold was purchased from Cisbio Company with the article number of 61HI2KLA; PAb Anti Human IgG-XL665 was purchased from Cisbio Company with the article number of 61HFCXLB; PD-L1-His protein was purchased from Abcam Company with the article number of ab167713; PD-1-Fc protein was purchased from R&D Company with the article number of 1086-PD; Detection buffer was purchased from Cisbio Company with the article number of 62SDBRDD; 384-well plate was purchased from PerkinElmer Company with the article number of 6007290.
Experimental method: In order to test the inhibitory activity of the compounds on human PD-1/PD-L1 binding, the method of time-resolved fluorescence resonance energy transfer (TR-FRET) was used in this experiment to test the inhibition of the compounds on human PD-1/PD-L1 binding, and the half inhibitory concentration IC50 of inhibitory activity of the compounds on human PD-1/PD-L1 binding was obtained.
This experiment was performed in a 384-well plate with a total reaction volume of 20 μL. Compounds were diluted to different concentrations (10 μM or 1 μM starting, 3-fold dilution, 11 doses) using assay buffer Binding Domain diluent buffer (Cisbio #62DLBDDF), then PD-L1-His protein (19 to 238 amino acids) (Abcam #ab167713) was diluted to 10 nM with assay buffer, and PD-1-Fc protein (25 to 167 amino acids) (R&D #1086-PD) was diluted to 20 nM with assay buffer; the compound, PD-L1 protein and PD-1 protein were added to a 384-well plate respectively, and the total volume was 10 μL, then centrifuged at 1000 rpm for 1 minute to mix well, and incubated for 60 minutes at room temperature. Then 10 μL of a mixed solution of MAb Anti-6HIS Eu cryptate Gold (Cisbio #61HI2KLA) and PAb Anti Human IgG-XL665 (Cisbio #61HFCXLB) diluted by HTRF Detection buffer was added to each well, and centrifuged at 1000 rpm for 1 minute to mix well. The reaction was carried out at room temperature for 3 hours or at 4° C. overnight, then a microplate reader (BioTek Synergy H1) was put into for reading; the excitation wavelength was 340 nm, and the emission wavelengths were 620 nm and 665 nm.
The ratio of fluorescence readings at 620 nm and 665 nm (665 nm/620 nm) was calculated, and the inhibition rate was calculated.
(In general: TR-FRET usually uses a lanthanide donor and a delayed reading to cut background.)
For `COc1cc(NCc2cnc(C(=O)Nc3cccc(-c4cccc(NC(=O)c5nc6c(n5C)CCN(CC5CC5)C6)c4Cl)c3Cl)cc2OC)ccn1` [Embodiment 83, 5-(Cyclopropylmethyl)-N-(2,2′-dichloro-3′-(4-methoxy-5-(((2-methoxypyridin-4-yl)amino)methyl)picolinamido)-[1,1′-biphenyl]-3-yl)-1-methyl-4,5,6,7-tetrahydro-1H-imidazo[4,5-c]pyridine-2-carboxamide], the IC50 is 2.7 nM.

For `Cc1c(NC(=O)c2ccc(CN3CC[C@@H](F)C3)cn2)cccc1-c1cccc(NC(=O)c2nc3c(n2C)CCN(C)C3)c1Cl` [Embodiment 106, (R)—N-(2-Chloro-3′-(5-((3-fluoropyrrolidin-1-yl)methyl)picolinamido)-2′-methyl-[1,1′-biphenyl]-3-yl)-1,5-dimethyl-4,5,6,7-tetrahydro-1H-imidazo[4,5-c]pyridine-2-carboxamide], the IC50 was determined as 6.5 nM. The figure for `COc1cc(C(=O)Nc2cccc(-c3cccc(NC(=O)c4nc5c(n4C)CCN(C)C5)c3Cl)c2C)ncc1CNC1CN(C(C)=O)C1` [Embodiment 100, N-(3′-(5-(((1-Acetylazetidin-3-yl)amino)methyl)-4-methoxypicolinamido)-2-chloro-2′-methyl-[1,1′-biphenyl]-3-yl)-1,5-dimethyl-4,5,6,7-tetrahydro-1H-imidazo[4,5-c]pyridine-2-carboxamide] is 6 nM; for `COc1cc(C(=O)Nc2cccc(-c3cccc(NC(=O)c4nc5c(n4C)CCN(C)C5)c3Cl)c2C)ncc1CN[C@@H]1CCNC1=O` [Embodiment 97, (R)—N-(2-Chloro-3′-(4-methoxy-5-(((2-carbonylpyrrolidin-3-yl)amino)methyl)picolinamido)-2′-methyl-[1,1′-biphenyl]-3-yl)-1,5-dimethyl-4,5,6,7-tetrahydro-1H-imidazo[4,5-c]pyridine-2-carboxamide] it is 5 nM; for `CCN1CCc2c(nc(C(=O)Nc3cccc(-c4cccc(NC(=O)c5cc(OC)c(CO)cn5)c4C)c3Cl)n2C)C1` [Embodiment 88, N-(2-Chloro-3′-(5-(hydroxymethyl)-4-methoxypicolinamido)-2′-methyl-[1,1′-biphenyl]-3-yl)-5-ethyl-1-methyl-4,5,6,7-tetrahydro-1H-imidazo[4,5-c]pyridine-2-carboxamide] it is 9 nM. The figure for `CNC(=O)CNCc1ccc(-c2cccc(-c3cccc(NC(=O)c4nc5c(n4C)CCN(C)C5)c3Cl)c2Cl)nc1OC` [Embodiment 140, N-(2,2′-Dichloro-3′-(6-methoxy-5-(((2-(methylamino)-2-carbonylethyl)amino)methyl)pyridin-2-yl)-[1,1′-biphenyl]-3-yl)-1,5-dimethyl-4,5,6,7-tetrahydro-1H-imidazo[4,5-c]pyridine-2-carboxamide] is 9.1 nM.

Consider `COc1nc(OCc2cccc(-c3cccc(NC(=O)c4nc5c(n4C)CCN(C)C5)c3Cl)c2C)nc(OC)c1CN1CCCC[C@H]1C(=O)O` [Embodiment 170, (S)-1-((2-((2′-Chloro-3′-(1,5-dimethyl-4,5,6,7-tetrahydro-1H-imidazo[4,5-c]pyridine-2-carboxamido)-2-methyl-[1,1′-biphenyl]-3-yl)methoxy)-4,6-dimethoxypyrimidin-5-yl)methyl)piperidine-2-carboxylic Acid], for which the IC50 came to 4.1 nM. The figure for `COc1cc(C(=O)Nc2cccc(-c3cccc(NC(=O)c4nc5c(n4C)CCN(C)C5)c3Cl)c2C)ncc1CN1CC2(COC2)CC1=O` [Embodiment 104, N-(2-Chloro-3′-(4-methoxy-5-((7-carbonyl-2-oxa-6-azaspiro[3.4]octan-6-yl)methyl)picolinamido)-2′-methyl-[1,1′-biphenyl]-3-yl)-1,5-dimethyl-4,5,6,7-tetrahydro-1H-imidazo[4,5-c]pyridine-2-carboxamide] is 9.1 nM.
